Source: ChEMBL document CHEMBL1201862, “PubChem BioAssay data set” (2004)
Active and inactive are the calls of the source.

Key:
[1] = target: T1, Sentrin-specific protease 6 (Homo sapiens, UniProt Q9GZR1); assay type: functional;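 note: Luminescence-based dose-response confirmatory assay of SENP6 inhibition, following up an ultra-high-throughput screen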
T1 sequence (Q9GZR1 whole entry): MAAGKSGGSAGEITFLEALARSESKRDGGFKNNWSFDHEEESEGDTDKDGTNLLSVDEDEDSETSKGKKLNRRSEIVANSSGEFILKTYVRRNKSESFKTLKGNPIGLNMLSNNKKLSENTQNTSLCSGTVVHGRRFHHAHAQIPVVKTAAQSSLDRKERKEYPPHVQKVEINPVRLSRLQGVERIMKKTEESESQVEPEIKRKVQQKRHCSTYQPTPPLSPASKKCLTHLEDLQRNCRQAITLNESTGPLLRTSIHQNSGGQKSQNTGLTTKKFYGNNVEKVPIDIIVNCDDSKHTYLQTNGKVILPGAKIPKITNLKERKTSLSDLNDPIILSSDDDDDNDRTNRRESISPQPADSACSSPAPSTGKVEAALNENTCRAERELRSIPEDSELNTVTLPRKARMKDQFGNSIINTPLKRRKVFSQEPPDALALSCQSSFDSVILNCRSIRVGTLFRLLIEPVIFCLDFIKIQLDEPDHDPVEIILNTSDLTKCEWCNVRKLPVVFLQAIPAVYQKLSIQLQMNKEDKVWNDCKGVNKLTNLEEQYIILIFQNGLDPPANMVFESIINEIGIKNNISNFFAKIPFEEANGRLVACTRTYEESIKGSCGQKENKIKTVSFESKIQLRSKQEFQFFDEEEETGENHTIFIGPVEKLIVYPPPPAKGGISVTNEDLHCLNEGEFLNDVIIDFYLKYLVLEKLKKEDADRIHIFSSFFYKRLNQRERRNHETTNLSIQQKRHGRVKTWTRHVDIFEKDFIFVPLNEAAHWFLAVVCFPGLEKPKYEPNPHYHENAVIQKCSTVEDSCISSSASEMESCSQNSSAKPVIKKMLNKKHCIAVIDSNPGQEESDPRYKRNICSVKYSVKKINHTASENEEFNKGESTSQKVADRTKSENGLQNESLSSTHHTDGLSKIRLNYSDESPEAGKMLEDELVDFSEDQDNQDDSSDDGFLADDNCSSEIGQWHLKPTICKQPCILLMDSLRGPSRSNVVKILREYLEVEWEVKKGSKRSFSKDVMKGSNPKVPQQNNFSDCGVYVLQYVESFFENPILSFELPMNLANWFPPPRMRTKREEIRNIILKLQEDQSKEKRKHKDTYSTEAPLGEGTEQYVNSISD

[2] = target: T2, Aminopeptidase N (Plasmodium falciparum FcB1/Columbia, UniProt O96935); experiment: malaria alanyl aminopeptidase activity blockers – biochemical, fluorogenic H-Leu-NHMec substrate, 1536-well (AID 1445); parameters: species or system Plasmodium falciparum 3D7, 3D7
T2 sequence (O96935 whole entry): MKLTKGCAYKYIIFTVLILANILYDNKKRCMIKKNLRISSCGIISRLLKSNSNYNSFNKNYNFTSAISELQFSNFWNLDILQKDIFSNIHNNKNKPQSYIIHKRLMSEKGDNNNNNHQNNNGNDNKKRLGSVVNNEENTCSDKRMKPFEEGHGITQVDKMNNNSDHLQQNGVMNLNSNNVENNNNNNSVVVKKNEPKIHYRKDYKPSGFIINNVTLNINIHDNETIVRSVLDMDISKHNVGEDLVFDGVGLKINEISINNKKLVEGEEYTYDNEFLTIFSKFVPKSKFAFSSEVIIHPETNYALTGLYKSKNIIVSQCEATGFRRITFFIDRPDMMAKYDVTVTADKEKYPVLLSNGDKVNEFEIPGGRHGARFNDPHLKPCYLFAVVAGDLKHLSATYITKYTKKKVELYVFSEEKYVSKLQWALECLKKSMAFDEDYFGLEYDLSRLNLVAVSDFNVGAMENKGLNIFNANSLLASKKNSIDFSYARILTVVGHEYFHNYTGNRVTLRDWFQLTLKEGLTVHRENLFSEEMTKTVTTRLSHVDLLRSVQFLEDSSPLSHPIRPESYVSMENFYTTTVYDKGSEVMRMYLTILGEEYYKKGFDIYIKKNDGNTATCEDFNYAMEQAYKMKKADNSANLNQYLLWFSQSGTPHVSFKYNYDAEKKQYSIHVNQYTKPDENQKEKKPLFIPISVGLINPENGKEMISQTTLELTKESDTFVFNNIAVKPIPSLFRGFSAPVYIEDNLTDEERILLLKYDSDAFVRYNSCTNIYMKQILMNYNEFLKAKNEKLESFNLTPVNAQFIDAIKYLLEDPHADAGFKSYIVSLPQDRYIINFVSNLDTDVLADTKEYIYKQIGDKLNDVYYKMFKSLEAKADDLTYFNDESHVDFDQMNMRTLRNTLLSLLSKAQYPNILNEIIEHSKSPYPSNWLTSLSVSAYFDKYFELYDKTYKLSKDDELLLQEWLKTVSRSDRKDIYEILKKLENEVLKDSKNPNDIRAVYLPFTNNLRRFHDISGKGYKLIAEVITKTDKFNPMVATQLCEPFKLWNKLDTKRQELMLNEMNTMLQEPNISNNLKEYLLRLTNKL

For `c1ccc2c(Nc3nnc(-c4ccncc4)s3)cccc2c1`, the IC50 [1] was 10.1 µM (active).
`N#Cc1c(O)nc(SCC(=O)N2c3ccccc3Sc3ccccc32)nc1-c1ccccc1` was tested, and the IC50 [2] was 11.2 µM (active).
`COc1cc(C(=O)c2nccc3cc(OC)c(OC)cc23)c([N+](=O)[O-])cc1OC` was tested, and the IC50 [1] was 0.936 µM (active).
For `N=C1S/C(=C\c2ccc(-c3ccccc3C(=O)O)o2)C(=O)N1c1ccc2c(c1)OCO2`, the IC50 [2] was 10.3 µM (active).
